Assay results published in ChEMBL document CHEMBL1201862, “PubChem BioAssay data set” (2004).
Values belong to the compound of their own block, whether it stands above or below them. The source made the active and inactive calls.

What was measured:
[1] = biological target: T1, Rac GTPase-activating protein 1 (Homo sapiens, UniProt Q9H0H5); experiment: blockers of MgcRacGAP-driven Rac1 GTP hydrolysis – biochemical, ADP Hunter fluorescence, primary and confirmatory, confirmation (AID 624330); format: functional
T1 sequence (Q9H0H5 whole entry): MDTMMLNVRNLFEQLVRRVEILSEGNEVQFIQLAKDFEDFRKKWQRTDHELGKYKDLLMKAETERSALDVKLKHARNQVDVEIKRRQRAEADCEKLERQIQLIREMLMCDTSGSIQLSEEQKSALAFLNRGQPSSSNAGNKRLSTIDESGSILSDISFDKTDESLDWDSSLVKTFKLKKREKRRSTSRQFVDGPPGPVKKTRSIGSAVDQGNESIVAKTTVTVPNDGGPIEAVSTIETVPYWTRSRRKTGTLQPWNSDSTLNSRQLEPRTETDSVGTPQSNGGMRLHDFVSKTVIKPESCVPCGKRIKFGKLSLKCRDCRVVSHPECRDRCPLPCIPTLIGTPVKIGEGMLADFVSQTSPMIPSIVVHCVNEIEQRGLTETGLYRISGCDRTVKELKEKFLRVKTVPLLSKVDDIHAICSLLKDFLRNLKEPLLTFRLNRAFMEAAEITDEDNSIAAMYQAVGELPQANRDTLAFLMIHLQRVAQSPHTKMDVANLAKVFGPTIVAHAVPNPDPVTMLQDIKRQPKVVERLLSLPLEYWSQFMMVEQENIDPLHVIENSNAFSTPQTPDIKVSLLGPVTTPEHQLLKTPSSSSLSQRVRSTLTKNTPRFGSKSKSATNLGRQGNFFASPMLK

[2] = biological target: T2, Corticotropin-releasing factor receptor 2/Corticotropin-releasing factor-binding protein (Homo sapiens, UniProt P24387+Q13324); experiment: Dose Response confirmation of uHTS hits for small molecule antagonists of the CRF-binding protein and CRF-R2 receptor complex.; format: functional; conditions: read-out: IC50_Mean
T2 sequence (Q13324 whole entry): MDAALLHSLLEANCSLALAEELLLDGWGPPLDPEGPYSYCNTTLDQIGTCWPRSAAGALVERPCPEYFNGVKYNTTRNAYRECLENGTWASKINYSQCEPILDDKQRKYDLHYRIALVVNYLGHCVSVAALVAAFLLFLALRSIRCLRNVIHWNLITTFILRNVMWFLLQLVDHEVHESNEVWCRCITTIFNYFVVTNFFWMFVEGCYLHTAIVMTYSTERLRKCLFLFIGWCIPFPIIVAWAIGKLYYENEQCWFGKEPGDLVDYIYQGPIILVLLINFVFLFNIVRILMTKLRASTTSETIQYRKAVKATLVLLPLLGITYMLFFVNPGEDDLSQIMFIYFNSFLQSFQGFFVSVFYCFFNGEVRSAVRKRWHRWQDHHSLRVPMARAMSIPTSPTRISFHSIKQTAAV
T2 sequence (P24387 whole entry): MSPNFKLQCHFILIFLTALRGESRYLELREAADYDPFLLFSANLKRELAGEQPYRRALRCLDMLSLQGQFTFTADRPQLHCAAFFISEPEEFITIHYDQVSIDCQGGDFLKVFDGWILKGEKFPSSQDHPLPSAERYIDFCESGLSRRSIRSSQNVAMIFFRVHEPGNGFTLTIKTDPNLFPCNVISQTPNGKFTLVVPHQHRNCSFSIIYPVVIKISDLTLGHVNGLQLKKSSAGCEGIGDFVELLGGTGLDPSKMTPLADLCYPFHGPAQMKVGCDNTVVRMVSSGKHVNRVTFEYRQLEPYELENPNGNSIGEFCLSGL

[3] = biological target: T2, Corticotropin-releasing factor receptor 2/Corticotropin-releasing factor-binding protein; experiment: activators of CRF receptor 2 with binding protein – uHTS hits, confirmation (AID 602473); format: functional; conditions: read-out: EC50_Mean
[4] = biological target: T3, Calpain-2 catalytic subunit (Sus scrofa, UniProt P43367); experiment: m-calpain protease blockers, concentration series – biochemical, fluorogenic peptide substrate, dose response (AID 1420); format: functional
T3 sequence (P43367 whole entry): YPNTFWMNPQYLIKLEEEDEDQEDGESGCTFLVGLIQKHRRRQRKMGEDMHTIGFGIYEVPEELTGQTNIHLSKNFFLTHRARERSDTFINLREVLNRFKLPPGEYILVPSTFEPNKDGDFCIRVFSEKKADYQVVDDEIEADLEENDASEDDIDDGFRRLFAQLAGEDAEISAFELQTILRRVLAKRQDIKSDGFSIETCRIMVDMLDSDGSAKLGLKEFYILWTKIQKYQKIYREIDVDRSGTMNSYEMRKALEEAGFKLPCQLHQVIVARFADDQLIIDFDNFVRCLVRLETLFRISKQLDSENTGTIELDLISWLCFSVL

BJ [5] = experiment: cells; format: functional, cell-based; conditions: Homo sapiens
BJ [6] = experiment: BJ-TERT-LT-ST fibroblast viability loss – cell-based, RAS-independent, luminescence, dose response (AID 1935); format: functional; conditions: Homo sapiens;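 note: BJ fibroblasts immortalized with TERT plus LT and ST oncogenes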
BJ [7] = experiment: BJ-TERT fibroblast viability loss – cell-based, RAS-independent, luminescence, dose response (AID 1933); format: functional; conditions: Homo sapiens
[8] = DRD fibroblast viability loss – cell-based, non-viral oncogenic, luminescence, dose response (AID 1934); format: functional; conditions: Homo sapiens
Paired box protein Pax-8 = Paired box protein Pax-8 (Homo sapiens, UniProt Q06710); experiment: PAX8 transcriptional activity inhibition in RMG-I – RMG-I cells, luciferase, cherry-pick, dose response (AID 687027); format: functional, cell-based;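 note: luciferase reporter driven by Pax8 target thyroperoxidase promoter measured by SteadyGlo luminescence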
[9] = biological target: T4, Polyadenylate-binding protein 1 (Homo sapiens, UniProt P11940); experiment: MLLE binding blockers, Cy5 peptide tracer – biochemical, fluorescence polarization, Cy5-PAM2 peptide, secondary, miRNA deadenylation inhibitor project, dose response (AID 602260); format: functional; conditions: read-out: IC50_Mean
[10] = biological target: T4, Polyadenylate-binding protein 1; experiment: MLLE domain peptide-binding blockers, IC50 – biochemical, fluorescence polarization, FITC-PAM2 peptide, dose response (AID 602259); format: functional; conditions: read-out: IC50_Mean

Paired box protein Pax-8, sequence (Q06710 whole entry): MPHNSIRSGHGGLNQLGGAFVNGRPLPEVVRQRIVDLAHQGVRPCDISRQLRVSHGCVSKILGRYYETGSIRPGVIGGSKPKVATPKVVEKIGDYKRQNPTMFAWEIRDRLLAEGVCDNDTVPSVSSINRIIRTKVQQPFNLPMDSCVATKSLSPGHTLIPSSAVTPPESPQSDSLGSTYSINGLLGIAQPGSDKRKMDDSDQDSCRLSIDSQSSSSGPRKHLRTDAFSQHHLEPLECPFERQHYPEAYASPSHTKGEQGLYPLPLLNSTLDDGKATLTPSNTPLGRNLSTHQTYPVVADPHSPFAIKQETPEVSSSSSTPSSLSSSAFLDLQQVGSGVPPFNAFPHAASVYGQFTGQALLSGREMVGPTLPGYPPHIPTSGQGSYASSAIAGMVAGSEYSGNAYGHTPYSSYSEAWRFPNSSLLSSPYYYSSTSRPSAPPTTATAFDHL
T4 sequence (P11940 whole entry, the tested form may be a part): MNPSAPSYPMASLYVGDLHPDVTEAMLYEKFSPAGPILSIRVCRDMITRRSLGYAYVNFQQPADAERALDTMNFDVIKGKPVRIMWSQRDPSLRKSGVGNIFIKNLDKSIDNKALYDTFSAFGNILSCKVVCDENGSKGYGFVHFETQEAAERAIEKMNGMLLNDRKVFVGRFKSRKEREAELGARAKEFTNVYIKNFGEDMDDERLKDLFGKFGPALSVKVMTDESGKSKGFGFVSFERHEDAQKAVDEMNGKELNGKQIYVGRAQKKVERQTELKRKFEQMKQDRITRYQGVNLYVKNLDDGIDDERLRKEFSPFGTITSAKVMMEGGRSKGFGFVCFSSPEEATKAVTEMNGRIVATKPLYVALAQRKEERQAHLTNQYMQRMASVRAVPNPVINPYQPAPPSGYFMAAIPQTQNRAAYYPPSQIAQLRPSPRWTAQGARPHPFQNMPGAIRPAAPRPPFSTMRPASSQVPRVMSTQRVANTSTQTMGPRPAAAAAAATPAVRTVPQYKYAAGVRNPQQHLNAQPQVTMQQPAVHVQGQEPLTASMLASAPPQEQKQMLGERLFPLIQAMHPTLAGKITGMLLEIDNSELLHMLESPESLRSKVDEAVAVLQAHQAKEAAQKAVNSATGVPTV

IC50 [1]: 161 µM (active)
SMILES: COc1ccc(NC2CCCN(C(=O)c3ccc(C)nc3)C2)cc1 (centres undefined)

IC50 [2]: > 47.1 µM (inactive)
EC50 [3]: > 53 µM (inactive)
SMILES: Cn1c(SCC(=O)N2CCCc3ccccc32)nc2cccnc21

IC50 [2]: > 47.1 µM (inactive)
EC50 [3]: > 53 µM (inactive)
SMILES: COc1ccc(CNC(=O)[C@H](C)NC(=O)C2CCN(S(=O)(=O)c3ccc(F)cc3)CC2)cc1

IC50 [4]: 1.63 µM (not active)
SMILES: COc1cc(CNc2nc(C)c([N+](=O)[O-])c(C)c2C#N)cc(OC)c1

SMILES: CCCCC1=CC2=C(c3ccco3)C(=O)C(C)(OC(=O)c3ccc(OC)cc3)C(=O)C2=CN1c1ccc(OC)cc1 (centres undefined)
EC50 (BJ [5]): > 150 µM (not active)
EC50 (BJ [6]): > 150 µM (inconclusive)
EC50 (BJ [7]): 47.1 µM (active)
EC50 [8]: > 150 µM (not active)

IC50 [1]: 178 µM (active)
SMILES: CC(=O)CC(=O)Nc1ccc(Nc2ccccc2)cc1

IC50 [2]: > 47.1 µM (inactive)
EC50 [3]: > 53 µM (inactive)
SMILES: COc1ccccc1S(=O)(=O)Cc1ccc(C(=O)NCc2ccccc2)o1

IC50 [1]: 91 µM (active)
SMILES: O=C1ON=C(c2ccccc2)/C1=C/c1ccco1

IC50 [4]: < 0.4 µM (not active)
SMILES: COc1ccc(N2CCN(C(=O)Nc3ccc(S(=O)(=O)N(C)C)cc3)CC2)cc1

AC50 (Paired box protein Pax-8): 0.931 µM (active)
SMILES: Cc1noc(/C=C/c2ccco2)c1S(=O)(=O)N1CCC(C(=O)NC(C)c2ccccc2)CC1 (centres undefined)

IC50 [1]: 99.8 µM (active)
SMILES: N#CC1=C(S)N(c2ccccc2)C(c2ccc(-c3ccccc3Cl)o2)NC1=O (centres undefined)

IC50 [4]: 11.3 µM (not active)
SMILES: Cc1noc(C)c1COC(=O)C(c1ccccc1)c1ccccc1

IC50 [4]: 10.8 µM (not active)
SMILES: CCCCOC(=O)c1ccc(NC(=O)c2c(Cl)ccc(Cl)c2OC)cc1

IC50 [2]: > 47.1 µM (inactive)
EC50 [3]: > 53 µM (inactive)
SMILES: Cc1cccnc1NC(=O)C(C)Oc1ccccc1 (centres undefined)

IC50 [1]: 93 µM (active)
SMILES: Cc1ccc(C)c(S(=O)(=O)N2CCN(CC(=O)N3CCc4ccccc4C3)CC2)c1

IC50 [1]: 50.2 µM (active)
SMILES: COc1cc(/C=N/N2C(=O)c3ccccc3C2=O)ccc1O

SMILES: CN(NC(=O)c1ccccc1F)c1nc(C(F)(F)F)nc2ccccc12
EC50 (BJ [5]): 0.813 µM (active)
EC50 (BJ [6]): 0.428 µM (inconclusive)
EC50 (BJ [7]): 0.667 µM (inconclusive)
EC50 [8]: 0.628 µM (active)

AC50 (Paired box protein Pax-8): 26.5 µM (active)
SMILES: C[C@H](CO)N1C[C@H](C)[C@H](CN(C)Cc2ccc3c(c2)OCO3)Oc2ccc(NC(=O)Nc3cccc4ccccc34)cc2C1=O

IC50 [2]: > 47.1 µM (inactive)
EC50 [3]: > 53 µM (inactive)
SMILES: CC(/C=N/Nc1nc(C)cc(C)n1)=C\c1ccc(C(C)C)cc1

IC50 [4]: > 50 µM (not active)
SMILES: COc1ccnc(Oc2ccc3ccccc3c2)c1C#N

IC50 [9]: > 66 µM (inactive)
IC50 [10]: > 66 µM (inactive)
SMILES: O=C(N/C(=C\c1ccco1)C(=O)N1CCCC1CO)c1ccccc1 (centres undefined)

IC50 [4]: 30.1 µM (not active)
SMILES: COc1ccc(NC(S)=NCCc2c(C)[nH]c3ccc(OC)cc23)cc1
